Key:
BTK = target: T1, BTK (Homo sapiens, UniProt Q06187); test: BTK resynthesis rate in cells after saturating exposure to and washout of Compound 128 (free BTK by ELISA); type: cell-based
T1 construct: endogenous in cells; host or cells: RAMOS B cells, HEL-92, MV-411, MOLM-13, THP-1, UKE-1, primary myeloid cells/monocytes from a healthy donor, primary cells from AML patients
Experimental: Various cell types and tissues show different rates of BTK synthesis (see FIG. 1). Cells were cultured with a saturating concentration of Compound 128 to occupy all BTK protein (0% free BTK). This was followed by a washout of Compound 128 and culturing for up to 48 hours with no BTK inhibitor to allow the cells to synthesize new BTK protein. The rate of BTK protein synthesis was determined by measuring the free BTK by ELISA at different time points. RAMOS B cells resynthesized BTK at a rate of only 26% per day, while Hel-92 and MV-411 cells resynthesized BTK at a rate of over 100% per day. […] The rate of BTK resynthesis in naïve AML patients was roughly 30% per day, with low inter-patient variability.
BTK resynthesis in each cell type was measured as described in Example 1. The left graph (see FIG. 2) depicts the BTK resynthesis rate in monocytes from a normal individual following a two hour exposure to Compound 128. The BTK resynthesis rate was determined to be 61% per day in normal monocytes. The right graph (see FIG. 2) depicts the BTK resynthesis rate in the presence of BTK inhibitor Compound 128 in two different cell lines.
BTK resynthesis was measured in additional AML and MF cell types as described in Example 1 following a one hour exposure to Compound 128 (see FIG. 3). MOLM-13 cells resynthesized BTK at a rate of only 21% per day, while THP-1 cells resynthesized BTK at a rate of 84% per day and UKE-1 cells resynthesized BTK at a rate of over 100% per day.

[1] = Half-life of Compound 128 in vivo
Experimental: In myeloproliferative disorders, the de novo resynthesis rate of BTK following covalent inhibition by Compound 128 is greater than the de novo BTK resynthesis rate in B-cell malignancies. […] The short half-life of Compound 128 (1 to 2 hours in vivo), coupled with the faster BTK turnover in myelofibrosis in particular, and myeloproliferative disorders in general, requires higher BID dosing. Thus, a 300 mg BID dose in subjects with myelofibrosis should ensure maximal BTK occupancy at trough levels of this drug.

T1 sequence (Q06187 whole entry): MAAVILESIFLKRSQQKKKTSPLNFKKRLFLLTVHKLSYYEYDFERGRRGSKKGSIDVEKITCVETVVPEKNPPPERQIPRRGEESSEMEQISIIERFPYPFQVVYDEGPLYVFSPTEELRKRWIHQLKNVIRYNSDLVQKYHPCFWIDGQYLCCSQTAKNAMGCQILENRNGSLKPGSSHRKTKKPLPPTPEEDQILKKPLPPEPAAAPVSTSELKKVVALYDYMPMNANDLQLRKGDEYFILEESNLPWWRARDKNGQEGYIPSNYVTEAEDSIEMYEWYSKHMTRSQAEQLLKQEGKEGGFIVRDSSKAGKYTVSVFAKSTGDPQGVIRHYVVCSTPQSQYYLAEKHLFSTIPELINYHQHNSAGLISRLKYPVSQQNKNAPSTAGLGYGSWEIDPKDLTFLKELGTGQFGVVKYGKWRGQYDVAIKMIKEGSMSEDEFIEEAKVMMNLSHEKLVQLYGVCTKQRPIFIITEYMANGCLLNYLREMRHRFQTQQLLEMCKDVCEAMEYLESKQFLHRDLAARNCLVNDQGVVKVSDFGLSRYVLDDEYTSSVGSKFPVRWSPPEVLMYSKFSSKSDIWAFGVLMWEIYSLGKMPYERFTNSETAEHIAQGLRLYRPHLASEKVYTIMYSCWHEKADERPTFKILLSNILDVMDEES

initial BTK resynthesis rate (BTK; HEL-92 (myelofibrosis) cells): 43 % per day
BTK resynthesis rate after repeated exposure (BTK; HEL-92 (myelofibrosis) cells, repeated exposure): 28 % per day
change of BTK resynthesis rate after treatment (BTK; Hel-92 cells, after 4 days of treatment): decreased BTK resynthesis rate
BTK resynthesis rate (BTK; Hel-92 cells, saturating concentration, washout, culture up to 48 hours): over 100 % per day
BTK resynthesis rate (BTK; MOLM-13 cells, one hour exposure): 21 % per day
BTK resynthesis rate after continued exposure (BTK; MV-411 cells (AML), continued exposure for seven days): 44 % per day
initial BTK resynthesis rate (BTK; MV-411 cells (AML)): 83 % per day
change of BTK resynthesis rate after treatment (BTK; MV-411 cells, after 7 days of treatment): decreased BTK resynthesis rate
BTK resynthesis rate (BTK; MV-411 cells, saturating concentration, washout, culture up to 48 hours): over 100 % per day
BTK resynthesis rate (BTK; RAMOS B cells, saturating concentration, washout, culture up to 48 hours): 26 % per day
BTK resynthesis rate (BTK; THP-1 cells, one hour exposure): 84 % per day
BTK resynthesis rate (BTK; UKE-1 cells, one hour exposure): over 100 % per day
BTK resynthesis rate (BTK; culture of primary myeloid cells from a healthy donor): 67 % per day
BTK resynthesis rate (BTK; cultures of primary cells from patients with relapsed AML): 57 % per day
de novo BTK resynthesis rate, HEL-92 cells compared to Ramos B-lymphoblastoid cell line (BTK; following covalent inhibition by Compound 128): four-fold higher
BTK resynthesis rate (BTK; monocytes from a normal individual, two hour exposure): 61 % per day
BTK resynthesis rate (BTK; naïve AML patients): roughly 30 % per day
half-life [1]: 1 to 2 h
SMILES: C=CC(=O)N1CCC(F)(CNc2ncnc(N)c2-c2ccc(Oc3ccccc3)cc2)CC1 [Compound 128, 1-(4-(((6-amino-5-(4-phenoxyphenyl)pyrimidin-4-yl)amino)methyl)-4-fluoropiperidin-1-yl)prop-2-en-1-one]

Source: patent US20250064805A1, “Methods of Treating Myeloproliferative Disorders Based on BTK Occupancy & Resynthesis Rate” (Telios Pharma Inc., priority 2022, published 2025)
